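How tested: cells in 96-well plates exposed to compound for 48 hours at five concentrations. Abbreviation: GI50, concentration required for 50% inhibition of growth. TGI is the concentration that stops growth completely.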
Legend:
Assay in all cases: NCI tumour cell line growth inhibition, 48 h
A498 renal = system: A498 renal
ACHN renal = system: ACHN renal
HOP-62 NSCLC = system: HOP-62 NSCLC
KM12 colon = system: KM12 colon
MOLT-4 leukemia = system: MOLT-4 leukemia
NCI-H226 lung = system: NCI-H226 lung
RXF 393 renal = system: RXF 393 renal
SK-OV-3 ovarian = system: SK-OV-3 ovarian
TK-10 renal = system: TK-10 renal
NCI-H23 lung = system: NCI-H23 lung

SMILES	GI50 (A498 renal) [µM]	TGI (A498 renal) [µM]	GI50 (ACHN renal) [µM]	TGI (ACHN renal) [µM]	GI50 (HOP-62 NSCLC) [µM]	TGI (HOP-62 NSCLC) [µM]	GI50 (KM12 colon) [µM]	TGI (KM12 colon) [µM]	GI50 (MOLT-4 leukemia) [µM]	TGI (MOLT-4 leukemia) [µM]	GI50 (NCI-H226 lung) [µM]	TGI (NCI-H226 lung) [µM]	GI50 (RXF 393 renal) [µM]	TGI (RXF 393 renal) [µM]	GI50 (SK-OV-3 ovarian) [µM]	TGI (SK-OV-3 ovarian) [µM]	GI50 (TK-10 renal) [µM]	TGI (TK-10 renal) [µM]	GI50 (NCI-H23 lung) [µM]	TGI (NCI-H23 lung) [µM]
COc1ccc(C2SC(C)C(=O)N2NC(=O)C(O)c2ccccc2)cc1OC (stereo not drawn)	> 100	> 100	> 100	> 100	> 100	> 100	> 100	> 100	> 100	> 100	> 100	> 100	> 100	> 100	> 100	> 100	> 100	> 100	–	–
O=C(Nc1cccc(NC(=O)Nc2cc(C(F)(F)F)ccc2Cl)c1)Nc1cc(C(F)(F)F)ccc1Cl	1.48	7.63	0.983	11.2	1.35	4.01	1.53	57.1	5.19	> 100	1.85	9.28	–	–	2.9	11.3	2.57	11.5	2.61	15.9
COc1ccc(OC)c(-c2c(C#N)c(N)nc(N3CCOCC3)c2C#N)c1	52.6	> 100	67.9	> 100	65.3	> 100	> 100	> 100	> 100	> 100	85.6	> 100	61.4	> 100	11.9	> 100	45	> 100	–	–
C[Si](C)(C)c1ccc(-c2sc(-c3ccc([Si](C)(C)C)s3)c3c2C[Si]2(C3)Cc3c(-c4ccc([Si](C)(C)C)s4)sc(-c4ccc([Si](C)(C)C)s4)c3C2)s1	–	–	–	> 100	–	> 100	–	> 100	–	> 100	–	> 100	–	> 100	–	> 100	–	> 100	–	> 100
C[C@]12CC[C@H]3[C@@H](CC[C@]4(O)C[C@@H](O)CC[C@]34/C=N/O)[C@@]1(O)CC[C@@H]2C1=COC(=O)C1	–	0.583	–	0.67	–	–	–	2.51	–	–	–	1.35	–	0.091	–	0.403	–	0.454	–	0.272
COc1ccc(OC)c2c1C(=O)C1CC1(Br)C2=O (stereo not drawn)	–	> 100	–	> 100	–	> 100	–	> 100	–	> 100	–	–	–	–	–	> 100	–	> 100	–	> 100
COC(=O)C1=CC2C(=O)OC1CC2C#N (stereo not drawn)	–	> 100	–	> 100	–	> 100	–	> 100	–	> 100	–	> 100	–	–	–	> 100	–	> 100	–	> 100
O=C1c2ccccc2-c2c1c1ccccc1c(=O)n2CCN1CCOCC1	–	–	29.8	92	> 100	> 100	61.8	> 100	14.7	38.6	73.9	> 100	49	> 100	> 100	> 100	84.8	> 100	–	–
COc1cc([C@H]2OC[C@H]3[C@@H]2CO[C@@H]3c2cc(OC)c3c(c2)OCO3)cc(OC)c1OC	–	> 100	–	> 100	–	> 100	–	> 100	–	–	–	> 100	–	–	–	> 100	–	> 100	–	> 100
COC(=O)CCC(NC(=S)N/N=C/c1ccco1)C(=O)OC (stereo not drawn)	–	> 100	–	> 100	–	> 100	–	> 100	–	–	–	> 100	–	> 100	–	> 100	–	> 100	–	> 100
CCN(CC)Cc1ccc(Nc2nccc(-c3cnn4ncccc34)n2)cc1	0.0144	0.0452	0.00739	> 25	0.0145	> 25	0.0101	0.102	0.0388	0.144	–	–	0.0063	0.0147	0.0825	> 25	0.0236	0.188	0.0217	0.126
CCSCCCN(CCCSCC)CCCSCC	–	–	–	–	–	> 100	–	> 100	–	> 100	–	–	–	–	–	> 100	–	–	–	> 100
NC(=O)c1c(NC(=O)c2ccc3c(c2)OCO3)sc2c1CCC(=O)C2	–	–	1.51	5.11	4.11	> 100	–	–	–	–	–	–	1.88	5.36	–	–	3.32	> 100	1.32	5.64
C1=C2/CC[C@H](Sc3ccccc3)[C@H]2C2(CCCCC/1)OCCO2	–	–	–	> 100	–	> 100	–	> 100	–	–	–	–	–	–	–	> 100	–	> 100	–	> 100
C/C=C(/COC(C)=O)C(=O)OC1C=C(C=O)C(C)(C)C=C1C (stereo not drawn)	–	> 100	–	> 100	–	–	–	> 100	–	–	–	> 100	–	–	–	> 100	–	> 100	–	> 100
CCCOC(=O)N1CCN(/[N+]([O-])=N/Oc2ccc([N+](=O)[O-])cc2[N+](=O)[O-])CC1	–	–	1.84	3.79	2.58	6.4	2.01	5.66	2.35	> 100	1.46	4.3	8.67	23.8	–	–	3.87	14.9	2.25	5.34
COc1ccc(C(C#N)Cc2cc(OC)c(OC)c(OC)c2)cc1 (stereo not drawn)	–	73.1	–	> 100	–	> 100	–	> 100	–	> 100	–	> 100	–	45.2	–	–	–	> 100	–	–
C/C(CC(=O)Nc1ccc(Cl)cc1)=N\NC(N)=S	–	> 100	–	> 100	–	> 100	–	> 100	–	> 100	–	–	–	> 100	–	> 100	–	> 100	–	> 100
CN1c2ccccc2N(C)C23N(C)c4ccccc4N(C)C12N(C)c1ccccc1N3C (stereo not drawn)	–	> 100	–	> 100	–	> 100	–	> 100	–	> 100	–	> 100	–	> 100	–	–	–	> 100	–	> 100
C=C1c2[nH]c3c([N+](=O)[O-])c(OC)ccc3c2CCN1C(C)=O	–	> 100	–	> 100	–	> 100	–	> 100	–	> 100	–	> 100	–	> 100	–	–	–	> 100	–	> 100
O=c1c2ccccc2nc(-c2ccccc2)n1NC1OC(CO)C(O)C(O)C1O (stereo not drawn)	–	> 100	–	> 100	–	> 100	–	> 100	–	> 100	–	> 100	–	–	–	> 100	–	> 100	–	> 100
Nc1[nH]nc2nc(-c3cccs3)cc(C(F)(F)F)c12	> 23.7	> 25	> 21.6	> 25	> 25	> 25	12	> 25	–	–	> 23.2	> 25	18.9	> 25	> 25	> 25	> 19.2	> 25	> 25	> 25
Cc1ccc(C)c(NC(=O)CC/C(=N\NC(=O)c2c(O)ccc3ccccc23)C(C)C(=O)c2ccc(O)cc2)c1 (stereo not drawn)	–	> 100	–	84.6	–	> 100	–	> 100	–	> 100	–	98.8	–	> 100	–	–	–	> 100	–	91.3
COc1cc(C2C(Cl)C(=O)N2NC(=O)c2ccc(N)cc2)ccc1O (stereo not drawn)	–	> 100	–	> 100	–	> 100	–	> 100	–	60.3	–	> 100	–	–	–	> 100	–	> 100	–	44.8
Cc1ccc(Nc2nc(C)c(C(/C=C/c3ccc(/C=C/C(=N/NC(=O)C[n+]4ccccc4)c4sc(Nc5ccc(C)cc5[N+](=O)[O-])nc4C)cc3)=N\NC(=O)C[n+]3ccccc3)s2)c([N+](=O)[O-])c1	–	–	–	> 100	–	> 100	–	> 100	–	> 100	–	84.5	–	> 100	–	> 100	–	> 100	–	> 100
O=C(Nc1ccc(Cl)c(Cl)c1)O/N=C\c1c(Cl)ccc([N+](=O)[O-])c1Cl	10.6	22.8	1.65	3.33	3.07	11	1.62	3.21	2.23	5.46	3.06	12.4	–	–	5.82	17.6	–	–	2.95	9.7
COc1ccc2ccccc2c1C1OC(=O)c2ccccc21 (stereo not drawn)	–	> 100	–	> 100	–	> 100	–	> 100	–	> 100	–	> 100	–	–	–	> 100	–	> 100	–	> 100
Cc1ccccc1NC(=O)C(=O)CC(=O)c1c(C)n([O-])c2ccccc2[n+]1=O	–	> 100	–	> 100	–	> 100	–	> 100	–	–	–	> 100	–	> 100	–	> 100	–	–	–	> 100
COc1ccc(/C=N/N=C(\N)NO)c(OC)c1	–	–	–	> 100	–	84.3	–	> 100	–	> 100	–	> 100	–	> 100	–	> 100	–	–	–	> 100

Reference: PubChem BioAssay (NCI)
